Each molecule was assayed on human hepatocytes (assay: Metabolic conversion of prodrugs to active form in human hepatocytes). Details: active metabolites Example 10-A and penciclovir, respectively.
Format: in vitro ADME
From the text: Metabolism of Prodrugs: Compounds of Formula (II) A study was undertaken to evaluate the metabolic conversion of prodrugs, compounds of formula (II) or (IIa), to compounds of formula (I) or (Ia) of the present invention. The produgs, compounds of formula (II) or (IIa), can be metabolized to the active compound of formula (I) or (Ia) and other compounds of the invention in the body if they are served as prodrugs. Hepatocytes are often used to assess the degree of metabolic conversion of prodrugs in the body of animal or human. A study was undertaken to evaluate the metabolic conversion of prodrug Example 21, Example 22, Example 23, Example 24, Example 25 and Example 26, to the corresponding active form, Example 10-A, in the presence of human hepatocytes. The formation of active form, Example 10-A, was monitored in the study. For comparison, the metabolic conversion of famciclovir to penciclovir was also assessed. Cryopreserved hepatocytes plating medium (Cat.#: PY-HMD-03) was purchased from RILD Research Institute for Liver Diseases (Shanghai) Co. Ltd. Cryopreserved human hepatocyte (Cat.#: X008005, Lot#:VRR) was purchased from BioreclamationIVT (Baltimore, Md.). The stock hepatocyte suspension was prepared from cryopreserved hepatocytes in plating medium at the concentration of 1.8×10^6 cells/mL. Compounds were dissolved in DMSO to make 10 mM stock solutions. 10 μL of the stock solution was diluted to 990 μL plating medium to get a 100 μM working solution. Reaction suspensions were prepared in 24-well cell culture plate by mixing 200 μL of hepatocytes suspension (human) and 200 μL of working solution. The final incubation contained 0.9×10^6 cells/mL and 50 μM compound. The above mixtures were incubated at 37° C. in a humidified 5% CO2 atmosphere, with a 900 rpm shaking. After 180 min of incubation, 200 μL of the incubation mixture was transferred to 1.5 mL tube and quenched with 400 μL stop solution (ice-cold acetonitrile with 0.2 μM Tolbutamide as internal standard). The samples were centrifuged at 14000 rpm for 10 minutes and the resultant supernatants were subjected to LC-MS/MS analysis. The calibration curves were prepared in the following way. To a 200 μL of cell suspension (cell density of 1.8 million cells/mL), 198 μL of hepatocyte plating medium and 2 μL of the appropriate concentration of the compound in DMSO were added. Samples were mixed thoroughly and 200 μL of the mixture was transferred to 400 μL of the stop solution (see above). The standard curve range is from 1 μM to 25 μM. The compounds were quantified on an API5500 […] instrument in the ESI-Positive MRM mode.

SMILES	metabolic conversion to active metabolite in human hepatocytes
CC[C@H](O)[C@@H]1C[C@@H]([C@@H](C)OC(=O)C(C)(C)C)[C@H](n2c(=O)sc3cnc(N)nc32)O1 [Example 24, [(1R)-1-[(2R,3S,5S)-2-(5-Amino-2-oxo-thiazolo[4,5-d]pyrimidin-3-yl)-5-[(1S)-1-hydroxypropyl]tetrahydrofuran-3-yl]ethyl] 2,2-dimethylpropanoate]	metabolized to yield the corresponding active metabolites
CC[C@H](O)[C@@H]1C[C@@H]([C@@H](C)OC(=O)C(C)C)[C@H](n2c(=O)sc3cnc(N)nc32)O1 [Example 23, [(1R)-1-[(2R,3S,5S)-2-(5-Amino-2-oxo-thiazolo[4,5-d]pyrimidin-3-yl)-5-[(1S)-1-hydroxypropyl]tetrahydrofuran-3-yl]ethyl] 2-methylpropanoate]	metabolized to yield the corresponding active metabolites
CC(=O)OCC(CCn1cnc2cnc(N)nc21)COC(C)=O [Famciclovir, famciclovir, reference compound]	metabolized to yield the corresponding active metabolites
CC[C@H](O)[C@@H]1C[C@@H]([C@@H](C)OC(C)=O)[C@H](n2c(=O)sc3cnc(N)nc32)O1 [Example 21, [(1R)-1-[(2R,3S,5S)-2-(5-Amino-2-oxo-thiazolo[4,5-d]pyrimidin-3-yl)-5-[(1S)-1-hydroxypropyl]tetrahydrofuran-3-yl]ethyl] acetate]	metabolized to yield the corresponding active metabolites
CCOC(=O)O[C@H](C)[C@@H]1C[C@@H]([C@@H](O)CC)O[C@H]1n1c(=O)sc2cnc(N)nc21 [Example 26, [(1R)-1-[(2R,3S,5S)-2-(5-Amino-2-oxo-thiazolo[4,5-d]pyrimidin-3-yl)-5-[(1S)-1-hydroxypropyl]tetrahydrofuran-3-yl]ethyl] ethyl carbonate]	metabolized to yield the corresponding active metabolites
CC[C@H](O)[C@@H]1C[C@@H]([C@@H](C)OC(=O)CC(C)C)[C@H](n2c(=O)sc3cnc(N)nc32)O1 [Example 25, [(1R)-1-[(2R,3S,5S)-2-(5-Amino-2-oxo-thiazolo[4,5-d]pyrimidin-3-yl)-5-[(1S)-1-hydroxypropyl]tetrahydrofuran-3-yl]ethyl] 3-methylbutanoate]	metabolized to yield the corresponding active metabolites
CC[C@H](OC(C)=O)[C@@H]1C[C@@H]([C@@H](C)O)[C@H](n2c(=O)sc3cnc(N)nc32)O1 [Example 22, [(1S)-1-[(2S,4S,5R)-5-(5-Amino-2-oxo-thiazolo[4,5-d]pyrimidin-3-yl)-4-[(1R)-1-hydroxyethyl]tetrahydrofuran-2-yl]propyl] acetate]	metabolized to yield the corresponding active metabolites

Source: patent US10065973B2, “Substituted aminothiazolopyrimidinedione for the treatment and prophylaxis of virus infection” (Hoffmann-La Roche Inc., priority 2016, dated 2018)
